Experimental data reported in article PMC6539594, “Triazolopeptides Inhibiting the Interaction between Neuropilin-1 and Vascular Endothelial Growth Factor-165” (Molecules, 2019).
Several values for one entry are separate records, joined by “and”; a condition that tells them apart may be missing. Equal values may be shown once. Entries after “also recorded” stand apart in the source; their conditions may differ. Read-outs that look alike come from different tables or passages of the source. Where no end group is shown, it is not given here. [ ]: non-standard residue; d: D form. hArg = N=C(N)NCCCC[C@H](N)C(=O)O; Dab = NCC[C@H](N)C(=O)O

Tests used:
[1] = target: T1, NRP-1 (neuropilin-1), binding of bt-VEGF165 (Homo sapiens, UniProt O14786); test: ELISA: inhibition of bt-VEGF165 binding to NRP-1; conditions: for inhibition at 10 µM / Inhibition of bt-VEGF165 Binding to NRP-1 [10 µM]: mean ± S.D.
Protocol: The inhibitory activity of obtained triazolopeptides 1–23 toward binding of VEGF165 to NRP-1 was measured with the enzyme-linked immunosorbent assay (ELISA). This protocol was described earlier in the literature and was broadly used by our group. VEGF165 was used in biotinylated form (bt-VEGF165).
This assay was carried out according to a previously described method.

[2] = Proteolytic stability by incubation in human plasma at 37 °C (HPLC-MS); assay type: in vitro ADME; conditions: for remaining at 8 h, 1.1 µmol/mL / remaining at 16 h, 1.1 µmol/mL / remaining at 24 h, 1.1 µmol/mL / remaining at 32 h, 1.1 µmol/mL / remaining at 40 h, 1.1 µmol/mL / remaining at 48 h, 1.1 µmol/mL: human; for remaining at 8 h, 1.1 µmol/mL / remaining at 16 h, 1.1 µmol/mL / remaining at 24 h, 1.1 µmol/mL / remaining at 32 h, 1.1 µmol/mL / remaining at 40 h, 1.1 µmol/mL / remaining at 48 h, 1.1 µmol/mL / half-life: pooled human plasma
Protocol: The samples of the incubated solutions were taken at constant time intervals (every 8 h) and analyzed with the use of HPLC-MS. This technique allows for determination of the proteolysis rate, and enables finding the cleavage sites by structural determination of appearing metabolites. To this aim, we used a previously established protocol.
The human plasma was provided by Mossakowski Medical Research Centre Polish Academy of Sciences (venous blood was obtained from three healthy donors and plasma samples were pooled in equal volumes). Triazolopeptide stock solution was prepared to achieve concentration ca. 1.4 mg/mL. Then, this solution was diluted two-fold into human plasma, affording a final concentration of ca. 1.1 µmol/mL. The samples were mixed on vortex mixer and incubated at 37 °C with 700 rpm mixing in thermoblock. Samples of 100 µL were taken every 8 h; the enzymatic cleavage was quenched by addition of 200 µL of 15% aqueos trichloroacetic acid and vortexed for a while. Precipitated proteins were then centrifuged at 14,000 rpm and 4 °C for 10 min to pellet them. After that, 150 µL of supernatant was taken and analyzed on HPLC-MS (quadrupole mass analyzer and electrospray ionization source). The system was equipped with Jupiter Proteo column I.D. 2.0 mm × 250 mm, phase A: ultrapure water + 0.05% TFA, phase B: gradient grade acetonitrile + 0.05% TFA, detection at 210 nm, quadrupole fixed on scan mode. Elution was with linear increase from 0% to 15% of phase B in 30 min, flow = 0.2 mL/min. All samples were analyzed trice in independent experiments.

[3] = in vitro; conditions: mouse, cell viability (Muse Cell Analyser), single replicates
Protocol: (§1) For this reason, we carried out a preliminary cytotoxicity assay on murine progenitor cells (myeloblast-like cell line derived from long term cultures of bone marrow 32D) to investigate the impact of 4 at different concentrations on their viability.
(§2) For the cell survivability test, the myeloblast-like cell line derived from long term cultures of bone marrow (32D, ATCC #CRL-11346) was used. Experiments were carried out using Muse Count & Viability Kit and Muse Cell Analyzer (Merck Millipore) according to the procedure given. Cells were incubated for 24 or 48 h with given 4 concentration. Each experiment was performed in three technical replications in three independent experiments.

[4] = system: myeloblast-like cell line derived from bone marrow (32D); test: In vitro cell survival test (Muse Count & Viability Kit); conditions: 32D cells
Protocol: as §1, §2

[5] = target: T1, NRP-1 (neuropilin-1), binding of bt-VEGF165; conditions: cited from earlier work
[6] = system: drug-resistant MDA-MB-231 human breast cancer cells xenograft; design: method as in PMID 16959272; conditions: nude mice xenografted with drug-resistant MDA-MB-231 human breast cancer cells; cited from earlier work
[7] = design: method as in PMID 30241012; conditions: human plasma; cited from earlier work
[8] = read-out: Relative (peak area average vs 0 h)

T1 sequence (O14786 22-923, species assumed): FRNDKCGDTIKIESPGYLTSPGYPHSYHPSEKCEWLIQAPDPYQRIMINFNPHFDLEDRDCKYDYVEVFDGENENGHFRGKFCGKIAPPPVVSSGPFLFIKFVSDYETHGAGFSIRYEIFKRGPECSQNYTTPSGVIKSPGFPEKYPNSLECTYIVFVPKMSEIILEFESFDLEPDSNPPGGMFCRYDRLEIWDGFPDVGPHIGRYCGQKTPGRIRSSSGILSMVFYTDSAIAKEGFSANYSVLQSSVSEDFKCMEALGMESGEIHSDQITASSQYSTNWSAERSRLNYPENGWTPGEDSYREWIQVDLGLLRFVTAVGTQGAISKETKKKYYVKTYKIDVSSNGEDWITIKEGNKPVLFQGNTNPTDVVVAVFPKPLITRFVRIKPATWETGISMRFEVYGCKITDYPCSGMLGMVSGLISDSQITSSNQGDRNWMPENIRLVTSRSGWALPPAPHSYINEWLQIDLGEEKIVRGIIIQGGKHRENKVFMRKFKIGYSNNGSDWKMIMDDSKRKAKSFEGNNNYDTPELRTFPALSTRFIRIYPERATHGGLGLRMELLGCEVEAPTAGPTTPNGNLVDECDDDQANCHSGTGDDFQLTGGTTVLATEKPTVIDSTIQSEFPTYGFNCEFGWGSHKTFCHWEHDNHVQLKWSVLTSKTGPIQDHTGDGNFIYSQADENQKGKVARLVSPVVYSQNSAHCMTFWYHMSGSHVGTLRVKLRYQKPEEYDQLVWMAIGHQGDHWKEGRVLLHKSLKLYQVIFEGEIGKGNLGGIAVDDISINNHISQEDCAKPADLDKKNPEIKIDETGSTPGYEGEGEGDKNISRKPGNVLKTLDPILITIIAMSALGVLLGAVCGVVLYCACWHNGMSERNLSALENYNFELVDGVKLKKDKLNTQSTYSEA

Compound: N=C(N)NCCCC[C@H](N)C(=O)NCCCC[C@H](N)C(=O)NCc1cn(Cc2cn([C@@H](CCCNC(=N)N)C(=O)O)nn2)nn1 [Compound 3, Lys(Har)-GlyΨ[Trl]GlyΨ[Trl]Arg]
- IC50 [1]: 8.39 µM
- inhibition at 10 µM [1]: 58.1 ± 2.1%
- compound remained in the solution after 48 h of incubation [2]: more than 70%
- remaining at 8 h, 1.1 µmol/mL [2, 8]: 91.3%
- remaining at 16 h, 1.1 µmol/mL [2, 8]: 90%
- remaining at 24 h, 1.1 µmol/mL [2, 8]: 87.6%
- remaining at 32 h, 1.1 µmol/mL [2, 8]: 81.8%
- remaining at 40 h, 1.1 µmol/mL [2, 8]: 73.4%
- remaining at 48 h, 1.1 µmol/mL [2, 8]: 72.2%
- remaining at 48 h, 1.1 µmol/mL ([2]; read-out: compound remained in the solution after 48 h of incubation): ~70%
- half-life [2]: > 48 h

Compound: N=C(N)NCCCC[C@H](N)C(=O)NCCCC[C@@H](N)C(=O)NCc1cn(Cc2cn([C@@H](CCCNC(=N)N)C(=O)O)nn2)nn1 [Compound 4, D-Lys(Har)-GlyΨ[Trl]GlyΨ[Trl]Arg]
- IC50 [1]: 10.2 µM
- inhibition at 10 µM [1]: 52.6 ± 1.3%
- viability at 24 h, 0.1 µM [3]: 99.4%
- viability at 24 h, 1 µM [3]: 99.3%
- viability at 24 h, 10 µM [3]: 99%
- viability at 24 h, 50 µM [3]: 98.7%
- viability at 24 h, 100 µM [3]: 98.6%
- viability at 48 h, 0.1 µM [3]: 99.4%
- viability at 48 h, 1 µM [3]: 99.6%
- viability at 48 h, 10 µM [3]: 99.4%
- viability at 48 h, 50 µM [3]: 99.7%
- viability at 48 h, 100 µM [3]: 99.2%
- compound remained in the solution after 48 h of incubation [2]: almost undigested; also recorded: almost non-degraded
- remaining at 8 h, 1.1 µmol/mL [2, 8]: 99.4%
- remaining at 16 h, 1.1 µmol/mL [2, 8]: 95.7%
- remaining at 24 h, 1.1 µmol/mL [2, 8]: 93.3%
- remaining at 32 h, 1.1 µmol/mL [2, 8]: 93.1%
- remaining at 40 h, 1.1 µmol/mL [2, 8]: 93%
- remaining at 48 h, 1.1 µmol/mL [2, 8]: 91.8%
- half-life [2]: > 48 h
- impact on cell survivability ([4]; 100 µM, 48 h incubation): does not exhibit any significant impact on normal cells’ viability; also recorded: does not exhibit any significant impact on cell survivability
- cell survival, t-test ([4]; different concentrations): No significant differences in cell survival

Compound: N=C(N)NCCCC[C@@H](N)C(=O)NCCCC[C@@H](N)C(=O)NCc1cn(Cc2cn([C@@H](CCCNC(=N)N)C(=O)O)nn2)nn1 [Compound 5, D-Lys(D-Har)-GlyΨ[Trl]GlyΨ[Trl]Arg]
- inhibition at 10 µM [1]: 48.5 ± 2.9%
- IC50 ([1]; dose-response curve, supplement): 9.11 µM

Compound: ATWKPPR [A7R]
- Inhibition of bt-VEGF165 Binding to NRP-1 [10 µM] [5]: 61.0 ± 0.4 ^3%
- IC50 [5]: 5.86 µM
- activity in vivo [6]: active in vivo

Compound: D-Lys(Fmoc-Har)-GlyΨ[Trl]GlyΨ[Trl]Arg [Compound 15]
- Inhibition of bt-VEGF165 Binding to NRP-1 [10 µM] [1]: 43.7 ± 0.5%

Compound: D-Lys(Har)-GlyΨ[Trl]Arg [Compound 2]
- Inhibition of bt-VEGF165 Binding to NRP-1 [10 µM] [1]: 33.1 ± 1.9%

Compound: D-Lys(Har)-Phe-GlyΨ[Trl]Arg [Compound 9]
- Inhibition of bt-VEGF165 Binding to NRP-1 [10 µM] [1]: 37.9 ± 1.1%

Compound: D-Lys(Har)-Pro-GlyΨ[Trl]Arg [Compound 7]
- Inhibition of bt-VEGF165 Binding to NRP-1 [10 µM] [1]: 38.4 ± 1.5%

Compound: Dab(Har)-GlyΨ[Trl]GlyΨ[Trl]Arg [Compound 17]
- Inhibition of bt-VEGF165 Binding to NRP-1 [10 µM] [1]: 41.3 ± 0.5%

Compound: Dap(Har)-GlyΨ[Trl]GlyΨ[Trl]Arg [Compound 18]
- Inhibition of bt-VEGF165 Binding to NRP-1 [10 µM] [1]: 25.3 ± 3.5%

Compound: Har-5Ava-GlyΨ[Trl]GlyΨ[Trl]Arg [Compound 20]
- Inhibition of bt-VEGF165 Binding to NRP-1 [10 µM] [1]: 29.7 ± 1.8%

Compound: Har-6Ahx-GlyΨ[Trl]GlyΨ[Trl]Arg [Compound 19]
- Inhibition of bt-VEGF165 Binding to NRP-1 [10 µM] [1]: 30.5 ± 0.6%

Compound: Har-Ala-GlyΨ[Trl]GlyΨ[Trl]Arg [Compound 21]
- Inhibition of bt-VEGF165 Binding to NRP-1 [10 µM] [1]: 27.8 ± 2.1%

Compound: Har-Gly-GlyΨ[Trl]GlyΨ[Trl]Arg [Compound 22]
- Inhibition of bt-VEGF165 Binding to NRP-1 [10 µM] [1]: 35.7 ± 1.6%

Compound: Har-GlyΨ[Trl]GlyΨ[Trl]Arg [Compound 23]
- Inhibition of bt-VEGF165 Binding to NRP-1 [10 µM] [1]: 20.0 ± 2.1%

Compound: Har-GlyΨ[Trl]GlyΨ[Trl]GlyΨ[Trl]Arg [Compound 13]
- Inhibition of bt-VEGF165 Binding to NRP-1 [10 µM] [1]: 34.8 ± 1.5%

Compound: Har-Lys-GlyΨ[Trl]GlyΨ[Trl]Arg [Compound 16]
- Inhibition of bt-VEGF165 Binding to NRP-1 [10 µM] [1]: 36.5 ± 1.4%

Compound: Har-Pro-GlyΨ[Trl]Arg [Compound 12]
- Inhibition of bt-VEGF165 Binding to NRP-1 [10 µM] [1]: 9.2 ± 0.8%

Compound: Lys(Fmoc-Har)-GlyΨ[Trl]GlyΨ[Trl]Arg [Compound 14]
- Inhibition of bt-VEGF165 Binding to NRP-1 [10 µM] [1]: 57.7 ± 1.8%

Compound: Lys(Har)-Dab-Pro-Arg
- t1/2 [7]: 34 h
- Inhibition of bt-VEGF165 Binding to NRP-1 [10 µM] [5]: 98.5%
- IC50 [5]: 0.2 µM

Compound: Lys(Har)-Dap-Pro-Arg
- t1/2 [7]: 41 h
- Inhibition of bt-VEGF165 Binding to NRP-1 [10 µM] [5]: 96.8%
- IC50 [5]: 0.2 µM

Compound: Lys(Har)-GlyΨ[Trl]Ala-Arg [Compound 10]
- Inhibition of bt-VEGF165 Binding to NRP-1 [10 µM] [1]: 43.3% and 43.2 ± 1.5%

Compound: Lys(Har)-GlyΨ[Trl]Arg [Compound 1]
- Inhibition of bt-VEGF165 Binding to NRP-1 [10 µM] [1]: 28.1 ± 1.2%

Compound: Lys(Har)-GlyΨ[Trl]Gly-Arg [Compound 11]
- Inhibition of bt-VEGF165 Binding to NRP-1 [10 µM] [1]: 30.6 ± 1.1%

Compound: Lys(Har)-Phe-GlyΨ[Trl]Arg [Compound 8]
- Inhibition of bt-VEGF165 Binding to NRP-1 [10 µM] [1]: 30.9 ± 2.1%

Compound: Lys(Har)-Pro-Ala-Arg
- t1/2 [7]: 0.65 h

Compound: Lys(Har)-Pro-Ala-Arg (KPAR)
- IC50 [5]: 0.2 µM

Compound: Lys(Har)-Pro-Dab-Arg
- t1/2 [7]: 0.733 h

Compound: Lys(Har)-Pro-Dab-Arg (K(hArg)P[Dab]R)
- IC50 [5]: 0.3 µM

Compound: Lys(Har)-Pro-GlyΨ[Trl]Arg [Compound 6]
- Inhibition of bt-VEGF165 Binding to NRP-1 [10 µM] [1]: 18.3 ± 0.9%

Compound: Lys-Pro-Pro-Arg (KPPR; printed: Lys-Pro-Pro-Arg)
- Inhibition of bt-VEGF165 Binding to NRP-1 [10 µM] [5]: 64.5%
- IC50 [5]: 4.6 µM
